Here are results for 20 compounds from patent US20120245184A1 (Aderans Research Institute, Inc., priority 2006, published 2012).

The term EC50 denotes the concentration needed to bring the measured effect to its halfway point.

Where a name gives a salt, the structure may show the parent alone.

Assay [1] has as its system C57BL/6 male mice. The assay can be described thus: DHT-induced alopecia (mouse model of male pattern baldness). It is filed as in vivo. The conditions noted are these: DHT pellet (2.5 mg 21 day) implanted subcutaneously; dosed topically once; visually graded for melanogenesis and hair regrowth. On the procedure: (§1) A mouse model of male pattern baldness is used to investigate the effectiveness of the present compounds for growing hair. Agonists for the sonic hedgehog pathway that act by binding and activating Smoothened were tested in a formulation of 50:30:20 PG:EtOH:water or 5:95 DMSO:acetone vehicle. C57BL/6 male mice (48-52 days old on arrival) from Charles River Labs were used on the study. The mice were housed and cared for according to established procedures. Food and water were ad libitum. On Day 0, the mice were shaved on their lower back, an area of ˜1.5 inches×˜2 inches with Wahl clippers using a surgical blade. On day −3, the mice were anesthetized with isoflurane, their back was rinsed with a pad of 70% ethanol, a placebo pellet or a DHT pellet (2.5 mg 21 day pellet) were implanted subcutaneously between the shoulder blades with a 10 gauge trochar. DHT pellet transplantation results in maintenance of existing hair follicles in the resting (telogen) phase. The hole was stapled with a sterile autoclip and the mice were returned to their cage after awaking. The mice were dosed topically once and visually graded daily, except weekends, for melanogenesis and hair regrowth of fur in the dosed area (Table 4).
In the absence of treatment with the present compounds, the follicles remain in telogen rather than following the normal time course of the mouse hair cycle.

Assay [2] concerns C57BL/6 male mice. In words: C57BL/6 hair growth after topical dosing. It is filed as in vivo, mouse. The note with it: dosed topically once on shaved lower back; visually graded for melanogenesis and hair regrowth. On the procedure:
as §1

The subject of assay [3] is sonic hedgehog pathway. The assay can be described thus: Human hedgehog reporter assay HEPM-GliLuc (HGL). The conditions noted are these: HepM human embryonic palatal mesenchymal cells, gli-luciferase reporter; read-out: HEPM Avg. EC50. It counts as cell-based. The essentials: (§2)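 Stable gli-luciferase reporter lines (mouse TM3; human Daoy and HEPM) switched to 0.5% FBS medium, given compounds at 1-5 μM with or without octyl-modified hedgehog protein (1-5 ng/ml) for 24 hrs. Luminescence read; eleven-point 1:3 dose curves, activation expressed as percentage of plate controls (AMAX).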
In general terms: A reporter such as luciferase makes a cellular process visible.

In assay [4] the test system is sonic hedgehog pathway. The assay can be described thus: Hedgehog reporter assay (gli-luciferase) in S12 cells. The conditions noted are these: S12 mouse embryonic mesenchymal cells, read-out: S12 Avg. EC50. It is filed as cell-based. From the text:
Mouse (TM3: mouse Leydig cells; S12: mouse embryonic mesenchymal cells) and human (Daoy: human medulloblastoma cell; HepM: human embryonic palatal mesenchymal cell) cell lines are used to screen small molecules for their ability to modulate the activity of the sonic hedgehog pathway (Table 1, Table 2, and Table 3). Stable hedgehog pathway reporter cell lines are established by specific antibiotic selection following transfection of a reporter plasmid containing a luciferase gene located directly downstream from the gli promoter. Consequently, any observable changes in cellular luciferase activity may be attributed to changes in sonic hedgehog pathway activity in mouse and human cells, respectively, since gli is the major by-product of this pathway. To calculate activity, we generate an eleven point dose curve for each compound using 1:3 dilutions in 96 well assay plates. Each plate tested also contains low and high control to establish maximal pathway activation so to establish/compare a percentage activation of each tested compound (AMAX) on respective plates. Also we calculate EC50 values, or a concentration where the pathway will be exactly 50% activated, for each tested compound to determine potency. In these cell lines, compounds that register >20% AMAX values are considered active.
Stable hedgehog pathway reporter cell lines are established following specific antibiotic selection following transfection of a reporter plasmid
In short, typically cells are plated in MicroTiter-plates at 10,000-20,000 cells per well, in growth media (containing 10%-20% FBS). After 48-72 hrs (HGL and DGL respectively) the media in the assay plates is switched to low-serum containing media (0.5% FBS). At that time compounds are added (at 1-5 μM) to the assay plates, in the presence or absence of hedgehog protein (octyl-modified version; 1-5 ng/ml). After another 24 hrs of incubation, the media from the assay plates is discarded and replaced with luciferase assay-mix. Subsequently, plates are incubated at RT for ˜15-30 mins and then read in a luminometer. [note: addition of the Hedgehog protein, although not critical, will sensitize the assay allowing the identification of weak actives].

The test system of assay [5] is sonic hedgehog pathway. The assay can be described thus: Human hedgehog reporter assay Daoy-GliLuc (DGL). It counts as cell-based. The conditions noted are these: Daoy human medulloblastoma cells, gli-luciferase reporter; read-out: Daoy Avg. EC50. In outline: as §2
The test system of assay [6] is sonic hedgehog pathway. The assay can be described thus: Hedgehog reporter assay (gli-luciferase) in TM3 cells. It counts as cell-based, mouse. The conditions noted are these: TM3 mouse Leydig cells, gli-luciferase reporter; read-out: TM3 Avg. EC50. In outline: as §2

On to `CN[C@H]1CC[C@H](N(Cc2cc(-c3ccnc(C)c3)ccc2OC)C(=O)c2sc3ccccc3c2Cl)CC1`, for which the “Androgenetic Alopecia” value with C57BL/6 male mice [1] is “yes”. For the same compound, the “C57BL/6 Hair Growth” value in the assay with C57BL/6 male mice [2] was “yes”.
For the compound `CN[C@H]1CC[C@H](N(Cc2cc(-c3ccc(S(C)(=O)=O)cc3)ccc2OC)C(=O)c2sc3ccccc3c2Cl)CC1`, in the assay on C57BL/6 male mice [1], the “Androgenetic Alopecia” value is “yes”. Moreover, in the assay with C57BL/6 male mice [2], the “C57BL/6 Hair Growth” value is on record as “yes”.
`CCOc1ccc(-c2ccc(C)nc2)cc1CN(C(=O)c1sc2ccccc2c1Cl)[C@H]1CC[C@H](NC)CC1`: in the assay with C57BL/6 male mice [2], the “C57BL/6 Hair Growth” value is given as “yes”.
Regarding `CN[C@H]1CC[C@H](N(Cc2cc(-c3ccnc(C(=O)N(C)C)c3)ccc2OC)C(=O)c2sc3c(F)ccc(F)c3c2Cl)CC1`, the “Androgenetic Alopecia” value with C57BL/6 male mice [1] is listed as “yes”. Moreover, the “C57BL/6 Hair Growth” value in the assay with C57BL/6 male mice [2] is on record as “yes”.
On to `CN[C@H]1CC[C@H](N(Cc2cc(-c3ccncc3)ccc2OC)C(=O)c2sc3ccccc3c2Cl)CC1`, for which, in the assay with C57BL/6 male mice [1], the “Androgenetic Alopecia” value is “yes”. The “C57BL/6 Hair Growth” value in the assay on C57BL/6 male mice [2] is given as “yes”.
With `CN[C@H]1CC[C@H](N(Cc2cc(-c3ccc(NS(C)(=O)=O)nc3)ccc2OC)C(=O)c2sc3c(F)ccc(F)c3c2Cl)CC1`, the “C57BL/6 Hair Growth” value in the assay on C57BL/6 male mice [2] is reported as “yes”.
On the same count and under the same terms, for `CCOc1ccc(-c2ccc(C#N)cc2)cc1CN(C(=O)c1sc2ccccc2c1Cl)[C@H]1CC[C@H](NC)CC1` the value was “yes”.
As to `CN[C@H]1CC[C@H](N(Cc2cc(-c3ccnc(C(=O)OC)c3)ccc2OC)C(=O)c2sc3c(F)ccc(F)c3c2Cl)CC1`, in the assay on C57BL/6 male mice [1], the “Androgenetic Alopecia” value was “yes”. For the same compound, in the assay with C57BL/6 male mice [2], the “C57BL/6 Hair Growth” value was “yes”.
On to `CN[C@H]1CC[C@H](N(Cc2cc(-c3ccnc(C(=O)O)c3)ccc2OC)C(=O)c2sc3c(F)ccc(F)c3c2Cl)CC1`, for which the “C57BL/6 Hair Growth” value in the assay on C57BL/6 male mice [2] was “no”.
As to `CN[C@H]1CC[C@H](N(Cc2cc(-c3ccc(N)nc3)ccc2OC)C(=O)c2sc3cccc(F)c3c2Cl)CC1` [362 (R13), 3-Chloro-4-fluoro-benzo[b]thiophene-2-carboxylic acid[5-(6-amino-pyridin-3-yl)-2-methoxy-benzyl]-(4-methylamino-cyclohexyl)-amide dihydrochloride], the 50% effective concentration (EC50) with sonic hedgehog pathway [3], with sonic hedgehog pathway [4], with sonic hedgehog pathway [5] and with sonic hedgehog pathway [6] was less than 50 nM in each case.
Take `CNC1CCC(N(Cc2cc(-c3ccc(C(C)=O)cc3)ccc2OC)C(=O)c2sc3c(F)ccc(F)c3c2Cl)CC1` (stereo not shown) [Compound 332, 3-Chloro-4,7-difluoro-benzo[b]thiophene-2-carboxylic acid (4′-acetyl-4-methoxy-biphenyl-3-ylmethyl)-(4-methylamino-cyclohexyl)-amide hydrochloride]: the 50% effective concentration (EC50) in the assay with sonic hedgehog pathway [3], with sonic hedgehog pathway [4], in the assay with sonic hedgehog pathway [5] and with sonic hedgehog pathway [6] was less than 50 nM throughout.
As for `CNC1CCC(N(Cc2cc(-c3ccc(C(=O)N(C)C)cc3)ccc2OC)C(=O)c2sc3c(F)ccc(F)c3c2Cl)CC1` (stereo not shown) [Compound 333, 3-Chloro-4,7-difluoro-benzo[b]thiophene-2-carboxylic acid (4′-dimethylcarbamoyl-4-methoxy-biphenyl-3-ylmethyl)-(4-methylamino-cyclohexyl)-amide hydrochloride], the half-maximal effective concentration (EC50) with sonic hedgehog pathway [3], with sonic hedgehog pathway [4], in the assay on sonic hedgehog pathway [5] and in the assay with sonic hedgehog pathway [6] was less than 50 nM in each case.
For the compound `CC[C@H]1CC[C@@H](N(Cc2cc(-c3ccc(C)cc3)ccc2OC)C(=O)C2=C(C)c3c(C)ccc(C)c3C2)CC1` [Compound 334, 3-Chloro-4,7-difluoro-benzo[b]thiophene-2-carboxylic acid[2-methoxy-5-(6-methyl-pyridin-3-yl)-benzyl]-(4-methylamino-cyclohexyl)-amide bis(trifluoroacetate)], the EC50 in the assay with sonic hedgehog pathway [3], with sonic hedgehog pathway [4], in the assay on sonic hedgehog pathway [5] and in the assay with sonic hedgehog pathway [6] was less than 50 nM each time.
Consider `CN[C@H]1CC[C@@H](N(Cc2cc(-c3ccc(S(C)(=O)=O)cc3)ccc2OC)C(=O)C2=C(Cl)c3c(C)ccc(C)c3C2)CC1` [Compound 335, 3-Chloro-4,7-difluoro-benzo[b]thiophene-2-carboxylic acid(4′-methanesulfonyl-4-methoxy-biphenyl-3-ylmethyl)-(4-methylamino-cyclohexyl)-amide hydrochloride], for which the half-maximal effective concentration (EC50) with sonic hedgehog pathway [3], in the assay on sonic hedgehog pathway [4], in the assay with sonic hedgehog pathway [5] and in the assay on sonic hedgehog pathway [6] was less than 50 nM throughout.
As to `CN[C@H]1CC[C@@H](N(Cc2cc(-c3ccc(N(C)C(C)=O)cc3)ccc2OC)C(=O)c2sc3c(C)ccc(C)c3c2C)CC1` [Compound 336, 3-Chloro-4,7-difluoro-benzo[b]thiophene-2-carboxylic acid[4′-(acetyl-methyl-amino)-4-methoxy-biphenyl-3-ylmethyl]-(4-methylamino-cyclohexyl)-amide hydrochloride], the EC50 with sonic hedgehog pathway [3], in the assay on sonic hedgehog pathway [4], in the assay on sonic hedgehog pathway [5] and in the assay on sonic hedgehog pathway [6] was less than 50 nM each time.
As to `CN[C@H]1CC[C@@H](N(Cc2cc(-c3ccc(CO)cc3)ccc2OC)C(=O)c2sc3c(C)ccc(C)c3c2Cl)CC1` [Compound 338, 3-Chloro-4,7-difluoro-benzo[b]thiophene-2-carboxylic acid(4′-hydroxymethyl-4-methoxy-biphenyl-3-ylmethyl)-(4-methylamino-cyclohexyl)-amide trifluoroacetate], the concentration for a half-maximal effect (EC50) in the assay on sonic hedgehog pathway [3], in the assay on sonic hedgehog pathway [4], in the assay on sonic hedgehog pathway [5] and in the assay on sonic hedgehog pathway [6] was less than 50 nM throughout.
Turning to `CNC1CCC(N(Cc2cc(-c3ccnc(C(N)=O)c3)ccc2OC)C(=O)c2sc3c(F)ccc(F)c3c2Cl)CC1` (stereo not shown) [Compound 354 (R17), 4-(3-{[(3-Chloro-4,7-difluoro-benzo[b]thiophene-2-carbonyl)-(4-methylamino-cyclohexyl)-amino]-methyl}-4-methoxy-phenyl)-pyridine-2-carboxylic acid amide dihydrochloride], the 50% effective concentration (EC50) with sonic hedgehog pathway [3], in the assay on sonic hedgehog pathway [4], with sonic hedgehog pathway [5] and in the assay with sonic hedgehog pathway [6] was less than 50 nM each time.
As to `CNc1cc(-c2ccc(OC)c(CN(C(=O)c3sc4c(F)ccc(F)c4c3Cl)C3CCC(NC)CC3)c2)ccn1` (stereo not shown) [Compound 357, 3-Chloro-4,7-difluoro-benzo[b]thiophene-2-carboxylic acid[2-methoxy-5-(2-methylamino-pyridin-4-yl)-benzyl]-(4-methylamino-cyclohexyl)-amide bis(trifluoroacetate)], the EC50 in the assay with sonic hedgehog pathway [3], in the assay with sonic hedgehog pathway [4], in the assay on sonic hedgehog pathway [5] and in the assay on sonic hedgehog pathway [6] was less than 50 nM each time.
On to `CNC1CCC(N(Cc2cc(-c3ccccn3)ccc2OC)C(=O)c2sc3c(F)ccc(F)c3c2Cl)CC1` (stereo not shown) [Compound 367, 3-Chloro-4,7-difluoro-benzo[b]thiophene-2-carboxylic acid (2-methoxy-5-pyridin-2-yl-benzyl)-(4-methylamino-cyclohexyl)-amide dihydrochloride], for which the EC50 in the assay on sonic hedgehog pathway [3], in the assay on sonic hedgehog pathway [4], with sonic hedgehog pathway [5] and in the assay with sonic hedgehog pathway [6] was less than 50 nM each time.
Consider `CNC1CCC(N(Cc2cc(-c3ccnc(C(=O)OC)c3)ccc2OC)C(=O)c2sc3c(F)ccc(F)c3c2Cl)CC1` (stereo not shown) [Compound R5, Methyl 4-(3-{[(3-chloro-4,7-difluoro-benzo[b]thiophene-2-carbonyl)-(4-methylamino-cyclohexyl)-amino]-methyl}-4-methoxy-phenyl)-pyridine-2-carboxylate], for which the concentration giving a half-maximal response (EC50) in the assay on sonic hedgehog pathway [3], in the assay on sonic hedgehog pathway [4], in the assay on sonic hedgehog pathway [5] and in the assay with sonic hedgehog pathway [6] was less than 50 nM each time.
